According to ChEMBL document CHEMBL1909046, “DrugMatrix in vitro pharmacology data”:

Experiments:
[1] = molecular target: Cytochrome P450 2D6 (Homo sapiens, UniProt P10635); details: bti-tn-5b1-4; note: in other assays of this panel Not Active means under 50% inhibition at 10 µM
[2] = molecular target: Adenosine receptor A2a (Homo sapiens, UniProt P29274); assay: DRUGMATRIX: Adenosine A2A radioligand binding (ligand: […]); assay type: cell membranes, HEK293, Membrane; details: hek293; Not Active = under 50% inhibition at 10 µM
Chain of Adenosine receptor A2a (P29274 whole entry): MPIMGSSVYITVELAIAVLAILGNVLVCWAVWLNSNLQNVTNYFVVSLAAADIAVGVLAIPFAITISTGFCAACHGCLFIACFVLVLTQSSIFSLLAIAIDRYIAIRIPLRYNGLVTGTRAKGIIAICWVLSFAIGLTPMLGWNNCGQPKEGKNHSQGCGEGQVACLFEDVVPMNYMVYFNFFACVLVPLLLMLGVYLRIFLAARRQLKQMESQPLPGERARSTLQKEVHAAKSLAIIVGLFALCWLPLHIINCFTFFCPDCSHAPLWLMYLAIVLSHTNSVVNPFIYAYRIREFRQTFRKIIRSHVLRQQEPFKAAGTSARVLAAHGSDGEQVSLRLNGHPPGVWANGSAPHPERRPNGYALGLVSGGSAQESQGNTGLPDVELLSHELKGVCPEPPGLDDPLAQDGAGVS

[3] = DRUGMATRIX: Glutamate, AMPA radioligand binding (ligand: [3H] AMPA); assay type: cell membranes, Rattus norvegicus, Wistar, Cerebral cortex, Membrane; details: Not Active = under 50% inhibition at 10 µM
[4] = DRUGMATRIX: Sodium/nucleoside co-transporter radioligand binding (ligand: nitrobenzylthioinosine); assay type: cell membranes, Cavia porcellus, Dunkin-Hartley, Cerebral cortex, Membrane; details: Not Active = under 50% inhibition at 10 µM
[5] = molecular target: C-C chemokine receptor type 5 (Homo sapiens, UniProt P51681); assay type: cell membranes, Membrane; details: hek293; note: in other assays of this panel Not Active means under 50% inhibition at 10 µM
Chain of C-C chemokine receptor type 5 (P51681 whole entry): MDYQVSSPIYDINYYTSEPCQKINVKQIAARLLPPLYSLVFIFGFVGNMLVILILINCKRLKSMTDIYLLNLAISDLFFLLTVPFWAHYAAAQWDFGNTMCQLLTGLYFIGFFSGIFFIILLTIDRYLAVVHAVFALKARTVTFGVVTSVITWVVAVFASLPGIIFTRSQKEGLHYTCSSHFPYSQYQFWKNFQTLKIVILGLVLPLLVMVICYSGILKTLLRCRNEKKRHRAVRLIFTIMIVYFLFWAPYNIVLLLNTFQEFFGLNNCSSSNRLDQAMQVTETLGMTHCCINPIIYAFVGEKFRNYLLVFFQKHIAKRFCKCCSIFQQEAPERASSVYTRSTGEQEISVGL

[6] = molecular target: Estrogen receptor beta (Homo sapiens, UniProt Q92731); details: sf9; note: in other assays of this panel Not Active means under 50% inhibition at 10 µM
Chain of Estrogen receptor beta (Q92731 whole entry): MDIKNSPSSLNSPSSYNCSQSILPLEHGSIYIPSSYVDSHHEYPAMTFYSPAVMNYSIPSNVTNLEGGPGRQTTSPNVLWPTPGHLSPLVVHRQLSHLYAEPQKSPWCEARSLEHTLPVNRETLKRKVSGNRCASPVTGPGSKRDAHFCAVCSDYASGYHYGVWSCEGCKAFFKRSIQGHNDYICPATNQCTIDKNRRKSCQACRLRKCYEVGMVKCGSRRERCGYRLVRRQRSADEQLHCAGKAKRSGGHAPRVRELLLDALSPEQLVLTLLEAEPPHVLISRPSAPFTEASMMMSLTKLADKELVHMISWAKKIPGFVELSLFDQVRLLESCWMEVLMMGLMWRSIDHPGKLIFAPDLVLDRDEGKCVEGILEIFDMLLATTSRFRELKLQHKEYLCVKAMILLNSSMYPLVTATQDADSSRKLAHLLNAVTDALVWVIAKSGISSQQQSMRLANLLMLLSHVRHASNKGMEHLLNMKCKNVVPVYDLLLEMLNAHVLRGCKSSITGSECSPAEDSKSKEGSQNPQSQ

[7] = molecular target: T1, Muscarinic acetylcholine receptor M4 (Homo sapiens, UniProt P08173); assay type: cell membranes, CHO-K1, Membrane; details: cho-k1; note: in other assays of this panel Not Active means under 50% inhibition at 10 µM
T1 sequence (P08173 whole entry): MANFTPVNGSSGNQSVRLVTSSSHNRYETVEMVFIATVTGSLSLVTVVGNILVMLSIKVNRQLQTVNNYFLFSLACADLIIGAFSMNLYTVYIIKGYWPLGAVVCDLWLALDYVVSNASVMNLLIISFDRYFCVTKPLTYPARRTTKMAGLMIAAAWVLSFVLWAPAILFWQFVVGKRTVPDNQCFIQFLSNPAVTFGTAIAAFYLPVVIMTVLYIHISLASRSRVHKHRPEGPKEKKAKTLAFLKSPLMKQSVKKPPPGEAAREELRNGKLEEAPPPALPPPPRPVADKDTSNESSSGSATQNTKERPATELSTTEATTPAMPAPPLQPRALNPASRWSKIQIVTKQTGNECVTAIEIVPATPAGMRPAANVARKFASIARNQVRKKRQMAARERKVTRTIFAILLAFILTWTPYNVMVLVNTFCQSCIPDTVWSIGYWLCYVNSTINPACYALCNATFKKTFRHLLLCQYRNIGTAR

[8] = DRUGMATRIX: Platelet-Derived Growth Factor (PDGF) radioligand binding (ligand: [125I] PDGF); assay type: cell-based; details: nih3t3; Not Active = under 50% inhibition at 10 µM
[9] = molecular target: Melanocortin receptor 4 (Homo sapiens, UniProt P32245); assay type: cell membranes, Membrane; details: hek293; note: in other assays of this panel Not Active means under 50% inhibition at 10 µM
Chain of Melanocortin receptor 4 (P32245 whole entry): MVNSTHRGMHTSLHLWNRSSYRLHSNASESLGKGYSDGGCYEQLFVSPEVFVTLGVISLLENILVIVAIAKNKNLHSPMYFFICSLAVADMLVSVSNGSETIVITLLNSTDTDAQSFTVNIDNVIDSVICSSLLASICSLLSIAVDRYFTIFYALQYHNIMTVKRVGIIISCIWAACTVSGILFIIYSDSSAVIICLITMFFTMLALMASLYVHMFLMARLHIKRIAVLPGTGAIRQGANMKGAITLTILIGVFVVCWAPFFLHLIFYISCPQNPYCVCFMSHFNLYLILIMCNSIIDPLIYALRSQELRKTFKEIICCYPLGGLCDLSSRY

[10] = molecular target: D(3) dopamine receptor (Homo sapiens, UniProt P35462); assay: DRUGMATRIX: Dopamine D3 radioligand binding (ligand: [3H] Spiperone); assay type: cell membranes, CHO, Membrane; details: cho
Chain of D(3) dopamine receptor (P35462 whole entry): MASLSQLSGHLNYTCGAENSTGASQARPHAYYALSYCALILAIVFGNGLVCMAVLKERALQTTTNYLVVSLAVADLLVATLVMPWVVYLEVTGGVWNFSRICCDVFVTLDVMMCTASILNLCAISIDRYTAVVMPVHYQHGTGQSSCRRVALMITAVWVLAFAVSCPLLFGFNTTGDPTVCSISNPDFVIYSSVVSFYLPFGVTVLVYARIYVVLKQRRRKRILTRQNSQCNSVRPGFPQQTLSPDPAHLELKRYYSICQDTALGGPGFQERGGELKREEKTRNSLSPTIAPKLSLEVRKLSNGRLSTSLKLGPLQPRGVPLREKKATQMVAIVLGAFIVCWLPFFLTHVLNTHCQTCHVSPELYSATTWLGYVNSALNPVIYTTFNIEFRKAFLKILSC

[11] = DRUGMATRIX: Purinergic P2X radioligand binding (ligand: [3H] alpha, beta-Methylene-ATP); assay type: cell membranes, Oryctolagus cuniculus, New Zealand albino, Urinary bladder, Membrane; details: Not Active = under 50% inhibition at 10 µM
[12] = molecular target: T2, Glucocorticoid receptor (Homo sapiens, UniProt P04150); details: hela s3; note: in other assays of this panel Not Active means under 50% inhibition at 10 µM
T2 sequence (P04150 whole entry): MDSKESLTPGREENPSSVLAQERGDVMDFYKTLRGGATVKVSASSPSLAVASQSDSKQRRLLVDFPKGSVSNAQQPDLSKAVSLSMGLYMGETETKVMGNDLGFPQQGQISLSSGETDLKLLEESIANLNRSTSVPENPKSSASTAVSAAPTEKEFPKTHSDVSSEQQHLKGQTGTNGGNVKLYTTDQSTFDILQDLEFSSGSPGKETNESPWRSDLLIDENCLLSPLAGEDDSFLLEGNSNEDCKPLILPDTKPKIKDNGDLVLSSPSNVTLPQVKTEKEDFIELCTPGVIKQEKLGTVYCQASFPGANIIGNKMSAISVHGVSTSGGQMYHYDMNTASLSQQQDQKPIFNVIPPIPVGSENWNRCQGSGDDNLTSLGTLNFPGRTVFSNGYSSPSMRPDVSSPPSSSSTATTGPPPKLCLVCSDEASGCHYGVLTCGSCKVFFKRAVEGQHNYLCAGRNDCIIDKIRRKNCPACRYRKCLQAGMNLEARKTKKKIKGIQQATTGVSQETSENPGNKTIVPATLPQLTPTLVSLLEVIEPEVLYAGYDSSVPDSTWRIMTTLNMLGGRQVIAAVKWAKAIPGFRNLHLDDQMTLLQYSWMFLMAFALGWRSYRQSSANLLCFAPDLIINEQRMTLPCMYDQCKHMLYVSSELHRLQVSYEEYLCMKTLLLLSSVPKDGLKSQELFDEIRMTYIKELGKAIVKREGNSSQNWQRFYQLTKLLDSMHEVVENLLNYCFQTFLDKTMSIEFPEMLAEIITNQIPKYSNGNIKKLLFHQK

[13] = molecular target: Sodium-dependent dopamine transporter (Homo sapiens, UniProt Q01959); assay: DRUGMATRIX: Dopamine Transporter radioligand binding (ligand: [125I] RTI-55); assay type: cell membranes, CHO-K1, Membrane; details: cho-k1; Not Active = under 50% inhibition at 10 µM
Chain of Sodium-dependent dopamine transporter (Q01959 whole entry): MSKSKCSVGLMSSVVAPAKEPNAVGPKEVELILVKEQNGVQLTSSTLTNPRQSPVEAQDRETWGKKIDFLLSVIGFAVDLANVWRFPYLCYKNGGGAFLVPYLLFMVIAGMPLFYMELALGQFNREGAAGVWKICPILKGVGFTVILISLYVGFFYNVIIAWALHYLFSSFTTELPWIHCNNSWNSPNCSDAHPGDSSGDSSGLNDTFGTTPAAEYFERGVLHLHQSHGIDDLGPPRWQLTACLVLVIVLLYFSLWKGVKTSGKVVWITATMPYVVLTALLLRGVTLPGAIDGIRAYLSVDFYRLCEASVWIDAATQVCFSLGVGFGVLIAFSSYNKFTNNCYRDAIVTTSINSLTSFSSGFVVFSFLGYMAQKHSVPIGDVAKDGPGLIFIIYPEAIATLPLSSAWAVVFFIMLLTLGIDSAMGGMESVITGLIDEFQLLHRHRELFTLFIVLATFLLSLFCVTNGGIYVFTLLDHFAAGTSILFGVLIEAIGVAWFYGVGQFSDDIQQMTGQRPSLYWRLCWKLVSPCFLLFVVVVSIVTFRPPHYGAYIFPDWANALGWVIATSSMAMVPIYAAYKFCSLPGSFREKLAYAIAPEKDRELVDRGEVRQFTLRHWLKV

[14] = molecular target: T3, Thromboxane-A synthase (Homo sapiens, UniProt P24557); assay: biochemical; assay type: tissue-based, Platelet; details: platelet
T3 sequence (P24557 whole entry): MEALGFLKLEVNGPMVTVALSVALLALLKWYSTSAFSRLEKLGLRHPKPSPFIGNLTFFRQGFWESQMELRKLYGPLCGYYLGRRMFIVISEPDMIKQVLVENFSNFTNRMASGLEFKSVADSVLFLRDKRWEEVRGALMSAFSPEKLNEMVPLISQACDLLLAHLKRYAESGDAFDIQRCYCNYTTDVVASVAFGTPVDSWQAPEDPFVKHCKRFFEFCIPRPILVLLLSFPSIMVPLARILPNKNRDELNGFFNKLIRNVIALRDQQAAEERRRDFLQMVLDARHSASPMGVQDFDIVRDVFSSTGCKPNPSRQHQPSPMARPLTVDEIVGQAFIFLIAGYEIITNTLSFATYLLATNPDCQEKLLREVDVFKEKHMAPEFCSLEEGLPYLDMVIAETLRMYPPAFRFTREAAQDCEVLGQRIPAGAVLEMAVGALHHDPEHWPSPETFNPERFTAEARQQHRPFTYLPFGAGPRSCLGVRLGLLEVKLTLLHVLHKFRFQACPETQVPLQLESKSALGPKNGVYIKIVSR

Chain of Cytochrome P450 2D6 (P10635 whole entry): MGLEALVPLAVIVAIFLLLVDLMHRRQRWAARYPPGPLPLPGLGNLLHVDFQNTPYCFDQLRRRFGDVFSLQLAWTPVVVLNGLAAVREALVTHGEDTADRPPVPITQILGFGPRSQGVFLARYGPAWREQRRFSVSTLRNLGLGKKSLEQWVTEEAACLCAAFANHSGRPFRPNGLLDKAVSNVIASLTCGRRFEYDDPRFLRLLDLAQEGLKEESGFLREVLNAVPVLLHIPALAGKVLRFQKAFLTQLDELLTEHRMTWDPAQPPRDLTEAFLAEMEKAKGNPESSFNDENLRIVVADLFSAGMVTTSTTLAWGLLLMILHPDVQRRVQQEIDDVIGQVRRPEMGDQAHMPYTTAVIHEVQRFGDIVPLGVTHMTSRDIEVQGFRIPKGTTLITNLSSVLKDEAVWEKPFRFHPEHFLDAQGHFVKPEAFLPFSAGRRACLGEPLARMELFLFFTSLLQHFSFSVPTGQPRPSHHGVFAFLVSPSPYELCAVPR

OCc1ccccc1 [BENZYL ALCOHOL]
Not Active: IC50 [1] | Ki [1] | IC50 [2] | IC50 [3] | Ki [3] | IC50 [4] | Ki [4] | IC50 [5] | IC50 [6] | IC50 [7] | IC50 [8] | Ki [8] | IC50 [9] | IC50 [10] | IC50 [11] | Ki [11] | IC50 [12] | IC50 [13] | IC50 [14]

CCCC[C@@H](CC)COC(=O)c1ccccc1C(=O)OC[C@@H](CC)CCCC [BIS(2-ETHYLHEXYL)PHTHALATE]
Not Active: IC50 [1] | Ki [1] | IC50 [2] | IC50 [3] | Ki [3] | IC50 [4] | Ki [4] | IC50 [5] | IC50 [6] | IC50 [7] | IC50 [8] | Ki [8] | IC50 [9] | IC50 [10] | IC50 [11] | Ki [11] | IC50 [12] | IC50 [13] | IC50 [14]

O=C1OC2(c3ccc(O)cc3Oc3cc(O)ccc32)c2ccccc21 [FLUORESCEIN]
Not Active: IC50 [1] | Ki [1] | IC50 [2] | IC50 [3] | Ki [3] | IC50 [4] | Ki [4] | IC50 [5] | IC50 [6] | IC50 [7] | IC50 [8] | Ki [8] | IC50 [9] | IC50 [10] | IC50 [11] | Ki [11] | IC50 [12] | IC50 [13] | IC50 [14]

COc1ccc([C@@H]2Sc3ccccc3N(CCN(C)C)C(=O)[C@@H]2OC(C)=O)cc1 [DILTIAZEM]
Not Active: IC50 [1] | Ki [1] | IC50 [2] | IC50 [3] | Ki [3] | IC50 [4] | Ki [4] | IC50 [5] | IC50 [6] | IC50 [7] | IC50 [8] | Ki [8] | IC50 [9] | IC50 [10] | IC50 [11] | Ki [11] | IC50 [12] | IC50 [13] | IC50 [14]

CC(C)(S)[C@@H](N)C(=O)O [PENICILLAMINE]
Not Active: IC50 [1] | Ki [1] | IC50 [2] | IC50 [3] | Ki [3] | IC50 [4] | Ki [4] | IC50 [5] | IC50 [6] | IC50 [7] | IC50 [8] | Ki [8] | IC50 [9] | IC50 [10] | IC50 [11] | Ki [11] | IC50 [12] | IC50 [13] | IC50 [14]

Cc1ccccc1N1CCN(CCc2nnc3n2CCCC3)CC1 [DAPIPRAZOLE]
Not Active: IC50 [1] | Ki [1] | IC50 [2] | IC50 [3] | Ki [3] | IC50 [4] | Ki [4] | IC50 [5] | IC50 [6] | IC50 [7] | IC50 [8] | Ki [8] | IC50 [9] | IC50 [10] | IC50 [11] | Ki [11] | IC50 [12] | IC50 [13] | IC50 [14]

NCC[C@H](O)C(=O)N[C@@H]1C[C@H](N)[C@@H](O[C@H]2O[C@H](CN)[C@@H](O)[C@H](O)[C@H]2O)[C@H](O)[C@H]1O[C@H]1O[C@H](CO)[C@@H](O)[C@H](N)[C@H]1O [AMIKACIN]
Not Active: IC50 [1] | Ki [1] | IC50 [2] | IC50 [3] | Ki [3] | IC50 [4] | Ki [4] | IC50 [5] | IC50 [6] | IC50 [7] | IC50 [8] | Ki [8] | IC50 [9] | IC50 [10] | IC50 [11] | Ki [11] | IC50 [12] | IC50 [13] | IC50 [14]

C=C1C(=O)O[C@@H]2C3O[C@]3(C)CC/C=C(\C)CC[C@@H]12 (some centres not stated)
Not Active: IC50 [1] | Ki [1] | IC50 [2] | IC50 [3] | Ki [3] | IC50 [4] | Ki [4] | IC50 [5] | IC50 [6] | IC50 [7] | IC50 [8] | Ki [8] | IC50 [9] | IC50 [10] | IC50 [11] | Ki [11] | IC50 [12] | IC50 [13] | IC50 [14]
